From article PMC5958115, “A novel small molecule chaperone of rod opsin and its potential therapy for retinal degeneration” (Nature Communications, 2018)

Assays:
[1] = Pharmacokinetics of YC-001 in mouse plasma; assay type: in vivo, C57BL/6 mice
Method: C57BL/6J mice ranging from 8 to 12 weeks of age were purchased from Jackson Labs. For administration, YC-001 was dissolved in DMSO at 160 mg mL^−1. To obtain the blood clearance curve for YC-001, each animal was treated by i.p. injection of YC-001 at 200 mg kg^−1 bw. After administration, blood was collected at 5, 10, 15, 20, 30, 45, 60, and 90 min from the orbital sinus and dropped into K2EDTA blood collection tubes (FisherScientific). Mice were anesthetized with a ketamine/xylazine cocktail two min before blood collection. The blood samples were then incubated at 4 °C for 2 h before centrifugation at 1800×g for 20 min to collect the plasma in the supernatant. Plasma was mixed with twice the volume of methanol and then stored at −80 °C. YC-001 was extracted from the samples (300 to 600 μL) with 0.6 mL chloroform. The chloroform fraction was collected, dried, and the extracted organic compounds were dissolved in 0.25 mL of methanol. One hundred µL of each sample was injected onto an Eclipse XDB-C18 column (4.6 × 150 mm, 5 µm) and YC-001 was detected and quantified as described in the section Metabolic stability of YC-001.

P23H opsin = conditions: cited from earlier work
[2] = tested on: S. typhimurium TA1535, TA97a, TA98, TA100 and E. coli WP2; assay: Micro Ames bacterial mutation test, five strains, with or without S9; conditions: 0.075-250 µg per well
Method: To determine the potential genotoxicity of YC-001, a Micro Ames test was performed by the Charles River Laboratories, Inc. The S9 microsomal fraction was obtained from Moltox Molecular Toxicology, Inc. (Boone, NC, USA). A premixture was prepared including 25 µL of S9 mix (10% v/v S9 fraction in 8 mM MgCl2, 33 mM KCl, 100 mM sodium phosphate buffer, pH 7.4, +S9) or phosphate buffer (0.2 M sodium phosphate, pH 7.4, no S9), 5 µL of bacterial culture (>1000 × 10^6 bacteria mL^−1) and 100 µL of molten top agar supplemented with 0.05 mM biotin and minimal histidine (0.05 mM) and minimal tryptophan (0.05 mM). The 24-well plates were prepared by adding 1.3 mL of minimal bottom agar (1.3% agar, Vogel-Bonner medium E and 0.25% glucose) to each well. A 10 µL aliquot of YC-001 working solution/negative/positive control was added to each well followed by addition of 130 µL of the premixture. The plates kept on a leveled surface for 1 h while the top agar solidified, then were incubated at 37 °C for 72 h. After this period, plates were stored at 4 °C before revertant colony counts were manually recorded using an inverted microscope. […]

human rod opsin D190N = molecular target: T1, human rod opsin D190N (Homo sapiens, UniProt P08100, D190N); assay: Cell-surface immunostain of rod opsin mutant in transfected NIH3T3 cells; assay type: cell-based; conditions: 10 µM, 24 h
T1 construct: expressed in transfected cells; host or cells: NIH3T3 cells, transient transfection with pcDNA3.1-hOpsin mutant
Method: (§1) Human rhodopsin cDNA was placed into the pcDNA3.1(+) vector (pcDNA3.1-hOpsin). Site-directed mutagenesis was performed following the QuickChange II site-directed mutagenesis kit (Agilent Technologies Inc.). Primers for the following mutations were as follows: T4R-forward, 5′-[…]-3′; T4R-reverse, 5′-[…]-3′; P53R-forward, 5′-[…]-3′; P53R-reverse, 5′-[…]-3′; G106R-forward, 5′-[…]-3′; G106R-reverse, 5′-[…]-3′; C110Y-forward, 5′-[…]-3′; C110Y-reverse, 5′-[…]-3′; D190N-forward, 5′-[…]-3′; D190N-reverse, 5′-[…]-3′; P267L-forward, 5′-[…]-3′; P267L-reverse, 5′-[…]-3′. DNA vectors with rhodopsin mutations were confirmed by Sanger sequencing. After NIH3T3 cells were transfected with pcDNA3.1-hOpsin or its mutants for 24 h, these cells were resuspended and seeded into a 96-well plate with an optic bottom (Corning). […] Each condition was repeated in three wells. The treated plate was covered in tin foil and incubated at 37 °C with 5% CO2 for 24 h. Cells were then immunostained with 50 µg mL^−1 Alexa488-conjugated B6-30 anti-rhodopsin antibody. Cells were not exposed to detergents so that cell membranes were kept intact and only rhodopsin on the cell surface was immunostained. Alexa 488 fluorescence was imaged by the ImageExpress (Molecular Devices) high-content imager with a ×20 objective.

human rod opsin C110Y = molecular target: T2, human rod opsin C110Y (Homo sapiens, UniProt P08100, C110Y); assay: as above; assay type: cell-based; conditions: 10 µM, 24 h
T2 construct: expressed in transfected cells; host or cells: NIH3T3 cells, transient transfection with pcDNA3.1-hOpsin mutant
Method: as §1

human rod opsin G106R = molecular target: T3, human rod opsin G106R (Homo sapiens, UniProt P08100, G106R); assay: as above; assay type: cell-based; conditions: 10 µM, 24 h
T3 construct: expressed in transfected cells; host or cells: NIH3T3 cells, transient transfection with pcDNA3.1-hOpsin mutant
Method: as §1

human rod opsin P267L = molecular target: T4, human rod opsin P267L (Homo sapiens, UniProt P08100, P267L); assay: as above; assay type: cell-based; conditions: 10 µM, 24 h
T4 construct: expressed in transfected cells; host or cells: NIH3T3 cells, transient transfection with pcDNA3.1-hOpsin mutant
Method: as §1

human rod opsin P53R = molecular target: T5, human rod opsin P53R (Homo sapiens, UniProt P08100, P53R); assay: as above; assay type: cell-based; conditions: 10 µM, 24 h
T5 construct: expressed in transfected cells; host or cells: NIH3T3 cells, transient transfection with pcDNA3.1-hOpsin mutant
Method: as §1

SMILES: O=C1OCC(c2ccc(Cl)s2)=C1c1cccs1 [YC-001]
- k el ([1]; C57BL/6J, mouse, plasma, intraperitoneal, 200 mg kg^−1 bw, estimated from T1/2 and C0, read-out: elimination rate constant (Ke) (converted)): 0.000335 s⁻¹
- C0 ([1]; C57BL/6J, mouse, plasma, ip, i.p. 200 mg kg^−1 bw, read-out: initial plasma concentration (C0)): 7280 ng/mL
- half-life ([1]; C57BL/6J, mouse, plasma, ip, i.p. 200 mg kg^−1 bw, read-out: plasma half-life (T1/2)): 34.5 min
- clearance ([1]; estimated from T1/2 and C0): 0.552 L min^−1 kg^−1 bw
- volume of distribution (Vd) ([1]; estimated from T1/2 and C0): 27.5 L kg^−1 bw
- effect of co-treatment with scriptaid (P23H opsin): synergistic effect
- Ames test result [2]: negative
- cell-surface staining of D190N rod opsin (human rod opsin D190N): increased significantly
- cell-surface staining of C110Y rod opsin (human rod opsin C110Y): not P53R or C110Y mutants increased significantly
- cell-surface staining of G106R rod opsin (human rod opsin G106R): increased significantly
- cell-surface staining of P267L rod opsin (human rod opsin P267L): increased significantly
- cell-surface staining of P53R rod opsin (human rod opsin P53R): not P53R or C110Y mutants increased significantly
